Measurements: PubChem BioAssay AID1745844 (Carcinogenic Potency Database (CPDB), 2022)
Several values for one entry are separate records, joined by “and”; a condition that tells them apart may be missing. Equal values may be shown once. Activity calls are given as the source filed them. How the calls were made is not given here.

Test system: rodent lifetime carcinogenesis bioassay, tumor incidence TD50
Assay: carcinogenic potency in animals, long-term in vivo studies, CPDB compilation (AID 1745844)
[1] = mouse, strain B6C3F1, females, in feed, site: any site (literature study), lesion: several types, types named in the paper, dosed 103 weeks, study length 104 weeks
[2] = mouse, strain B6C3F1, females, in feed, site: liver, lesion: hepatocellular adenoma + hepatocellular carcinoma + neoplastic nodule, dosed 103 weeks, study length 104 weeks
[3] = mouse, strain B6C3F1, males, in feed, site: any site (literature study), lesion: several types, types named in the paper, dosed 103 weeks, study length 104 weeks
[4] = mouse, strain B6C3F1, males, in feed, site: liver, lesion: hepatocellular adenoma + hepatocellular carcinoma + neoplastic nodule, dosed 103 weeks, study length 104 weeks
[5] = rat, strain Fischer 344, females, in feed, site: any site (literature study), lesion: several types, types named in the paper, dosed 103 weeks, study length 105 weeks
[6] = rat, strain Fischer 344, males, in feed, site: any site (literature study), lesion: several types, types named in the paper, dosed 103 weeks, study length 104 weeks
[7] = mouse, strain B6C3F1, females, in feed, site: liver, lesion: hepatocellular carcinoma, dosed 91 weeks, study length 91 weeks
[8] = mouse, strain B6C3F1, females, in feed, site: liver, lesion: several types, types named in the paper, dosed 91 weeks, study length 91 weeks
[9] = mouse, strain B6C3F1, females, in feed, site: liver, lesion: several types, types named in the paper, dosed 100 weeks, study length 100 weeks

`Nc1ccc(N=Nc2ccc(-c3ccc(N=Nc4c(S(=O)(=O)O)cc5cc(S(=O)(=O)O)c(N=Nc6ccccc6)c(O)c5c4N)cc3)cc2)c(N)c1` was tested, and the TD50 (mouse, strain ICR, both sexes, in drinking water, site: any site (literature study), lesion: several types, types named in the paper, dosed 57 weeks, study length 57 weeks) was 32 mg/kg/day, the TD50 (mouse, strain ICR, both sexes, in drinking water, site: liver, lesion: hepatoma, dosed 57 weeks, study length 57 weeks) was 71.6 mg/kg/day and the TD50 (mouse, strain ICR, both sexes, in drinking water, site: mammary gland, lesion: several types, types named in the paper, dosed 57 weeks, study length 57 weeks) was 262 mg/kg/day. The TD50 (rat, strain Fischer 344, females, in feed, site: any site (literature study), lesion: several types, types named in the paper, dosed 13 weeks, study length 13 weeks) was 2.61 mg/kg/day, the TD50 (rat, strain Fischer 344, females, in feed, site: liver, lesion: hepatocellular adenoma + hepatocellular carcinoma + neoplastic nodule, dosed 13 weeks, study length 13 weeks) was 2.61 mg/kg/day and the TD50 (rat, strain Fischer 344, females, in feed, site: liver, lesion: neoplastic nodule, dosed 13 weeks, study length 13 weeks) was 2.61 mg/kg/day. The TD50 (rat, strain Fischer 344, males, in feed, site: any site (literature study), lesion: several types, types named in the paper, dosed 13 weeks, study length 13 weeks) was 0.945 mg/kg/day, the TD50 (rat, strain Fischer 344, males, in feed, site: liver, lesion: hepatocellular adenoma + hepatocellular carcinoma + neoplastic nodule, dosed 13 weeks, study length 13 weeks) was 0.945 mg/kg/day and the TD50 (rat, strain Fischer 344, males, in feed, site: liver, lesion: hepatocellular carcinoma + neoplastic nodule, dosed 13 weeks, study length 13 weeks) was 0.945 mg/kg/day. It also gave a TD50 (rat, strain Fischer 344, males, in feed, site: liver, lesion: hepatocellular carcinoma, dosed 13 weeks, study length 13 weeks) of 2.22 mg/kg/day.

`CC=NO` was tested, and the TD50 (rat, strain Fischer 344, males, in drinking water, site: liver, lesion: hyperplastic nodule, dosed 110 weeks, study length 129 weeks) was 445 mg/kg/day.

`CC1=C2C(=CO[C@H](C)[C@H]2C)C(=O)C(C(=O)O)=C1O` was tested, and the carcinogen call (rat, strain Fischer 344, males, in feed, site: kidney, lesion: clear-cell adenoma, dosed 60 weeks, study length 60 weeks) was “positive” and the carcinogen call (rat, strain Fischer 344, males, in feed, site: kidney, lesion: clear-cell adenoma, dosed 80 weeks, study length 80 weeks) was “positive”.

`OCC(O)[C@@H](O)[C@H](O)[C@H](O)CO[C@H]1O[C@H](CO)[C@@H](O)[C@H](O)[C@H]1O` (stereo not given in full) was tested, and the TD50 (mouse, strain Cpb:Swiss random, females, in feed, site: any site (literature study), lesion: one or several types, types not named, dosed 104 weeks, study length 104 weeks) was 83400 mg/kg/day (inactive), the carcinogen call (mouse, strain Cpb:Swiss random, females, in feed, site: liver, lesion: one or several types, types not named, dosed 104 weeks, study length 104 weeks) was “negative (inactive)” and the TD50 (mouse, strain Cpb:Swiss random, females, in feed, site: lung, lesion: alveolar-cell tumor, dosed 104 weeks, study length 104 weeks) was 92600 mg/kg/day (inactive). For the same compound, the carcinogen call (mouse, strain Cpb:Swiss random, males, in feed, site: any site (literature study), lesion: one or several types, types not named, dosed 94 weeks, study length 94 weeks) was “negative (inactive)”, the carcinogen call (mouse, strain Cpb:Swiss random, males, in feed, site: liver, lesion: hepatocellular carcinoma, dosed 94 weeks, study length 94 weeks) was “negative (inactive)” and the carcinogen call (mouse, strain Cpb:Swiss random, males, in feed, site: liver, lesion: neoplastic nodule, dosed 94 weeks, study length 94 weeks) was “negative (inactive)”. The TD50 (mouse, strain Cpb:Swiss random, males, in feed, site: lung, lesion: alveolar-cell tumor, dosed 94 weeks, study length 94 weeks) was 26200 mg/kg/day (inactive).

For `Nc1ccccc1-c1ccccc1`, the TD50 (mouse, strain B6C3F1, females, in feed, site: all sites, lesion: angiosarcoma + hemangioma, dosed 103 weeks, study length 104 weeks) was 1120 mg/kg/day, the TD50 (mouse, strain B6C3F1, females, in feed, site: all sites, lesion: angiosarcoma, dosed 103 weeks, study length 104 weeks) was 1280 mg/kg/day and the TD50 [1] was 1880 mg/kg/day. For the same compound, the TD50 [2] was 2000 mg/kg/day, the TD50 (mouse, strain B6C3F1, females, in feed, site: lung, lesion: alveolar/bronchiolar adenoma + alveolar/bronchiolar carcinoma, dosed 103 weeks, study length 104 weeks) was 26100 mg/kg/day and the TD50 (mouse, strain B6C3F1, males, in feed, site: all sites, lesion: angiosarcoma + hemangioma + hemangiosarcoma, dosed 103 weeks, study length 104 weeks) was 1250 mg/kg/day. It also gave a TD50 (mouse, strain B6C3F1, males, in feed, site: all sites, lesion: angiosarcoma + hemangiosarcoma, dosed 103 weeks, study length 104 weeks) of 1810 mg/kg/day, a TD50 [3] of 720 mg/kg/day and a TD50 [4] of 1700 mg/kg/day. For the same compound, the carcinogen call [5] was “negative (inactive)”, the TD50 (rat, strain Fischer 344, females, in feed, site: liver, lesion: hepatocellular adenoma + hepatocellular carcinoma + neoplastic nodule, dosed 103 weeks, study length 105 weeks) was 363 mg/kg/day and the carcinogen call [6] was “negative (inactive)”.

`CCCN=[N+]([O-])CCC` showed a TD50 (rat, strain Sprague-Dawley, males, by gavage, site: liver, lesion: hepatocellular carcinoma, dosed 26 weeks, study length 77 weeks) of 0.00736 mg/kg/day, a TD50 (rat, strain Sprague-Dawley, males, by gavage, site: nasal cavity, lesion: esthesioneuroepithelioma, dosed 26 weeks, study length 77 weeks) of 0.000723 mg/kg/day and a TD50 (rat, strain Sprague-Dawley, males, by gavage, site: nasal cavity, lesion: papilloma, dosed 26 weeks, study length 77 weeks) of 0.00736 mg/kg/day. The TD50 (rat, strain Sprague-Dawley, males, by gavage, site: nasal cavity, lesion: several types, types named in the paper, dosed 26 weeks, study length 77 weeks) was 0.000596 mg/kg/day, the TD50 (rat, strain Sprague-Dawley, males, by gavage, site: skin, lesion: keratoacanthoma, dosed 26 weeks, study length 77 weeks) was 0.00038 mg/kg/day and the carcinogen call (rat, strain Sprague-Dawley, males, by gavage, site: skin, lesion: several types, types named in the paper, dosed 26 weeks, study length 77 weeks) was “positive”.

`CNc1ccc(N(CCO)CCO)cc1[N+](=O)[O-]` gave a TD50 [1] of 373 mg/kg/day, a TD50 [2] of 179 mg/kg/day and a TD50 (mouse, strain B6C3F1, females, in feed, site: liver, lesion: hepatocellular adenoma + hepatocellular carcinoma, dosed 103 weeks, study length 104 weeks) of 179 mg/kg/day. For the same compound, the TD50 (mouse, strain B6C3F1, females, in feed, site: liver, lesion: hepatocellular adenoma, dosed 38 weeks, study length 100 weeks) was 165 mg/kg/day, the TD50 (mouse, strain B6C3F1, females, in feed, site: liver, lesion: hepatocellular adenoma, dosed 64 weeks, study length 100 weeks) was 969 mg/kg/day and the TD50 (mouse, strain B6C3F1, females, in feed, site: liver, lesion: hepatocellular adenoma, dosed 103 weeks, study length 104 weeks) was 697 mg/kg/day. The TD50 (mouse, strain B6C3F1, females, in feed, site: liver, lesion: hepatocellular carcinoma, dosed 38 weeks, study length 100 weeks) was 114 mg/kg/day, the TD50 (mouse, strain B6C3F1, females, in feed, site: liver, lesion: hepatocellular carcinoma, dosed 64 weeks, study length 100 weeks) was 94 mg/kg/day and the TD50 [7] was 88.9 mg/kg/day and 148 mg/kg/day. For the same compound, the carcinogen call [7] was “positive”, the TD50 (mouse, strain B6C3F1, females, in feed, site: liver, lesion: hepatocellular carcinoma, dosed 100 weeks, study length 100 weeks) was 115 mg/kg/day and 163 mg/kg/day and 87.1 mg/kg/day and the TD50 (mouse, strain B6C3F1, females, in feed, site: liver, lesion: hepatocellular carcinoma, dosed 103 weeks, study length 104 weeks) was 208 mg/kg/day. For the same compound, the TD50 (mouse, strain B6C3F1, females, in feed, site: liver, lesion: several types, types named in the paper, dosed 38 weeks, study length 100 weeks) was 41.3 mg/kg/day, the TD50 (mouse, strain B6C3F1, females, in feed, site: liver, lesion: several types, types named in the paper, dosed 64 weeks, study length 100 weeks) was 81.5 mg/kg/day and the TD50 [8] was 85 mg/kg/day. The carcinogen call [8] was “positive”, the TD50 [9] was 70.6 mg/kg/day and 51.4 mg/kg/day and the carcinogen call [9] was “positive”. It also gave a TD50 [3] of 561 mg/kg/day, a TD50 (mouse, strain B6C3F1, males, in feed, site: liver + thyroid gland, lesion: hepatocellular carcinoma + follicular-cell adenoma, dosed 103 weeks, study length 104 weeks) of 369 mg/kg/day and a TD50 [4] of 259 mg/kg/day. It also gave a TD50 (mouse, strain B6C3F1, males, in feed, site: liver, lesion: hepatocellular adenoma + hepatocellular carcinoma, dosed 103 weeks, study length 104 weeks) of 259 mg/kg/day, a TD50 (mouse, strain B6C3F1, males, in feed, site: liver, lesion: hepatocellular adenoma, dosed 103 weeks, study length 104 weeks) of 286 mg/kg/day and a TD50 (mouse, strain B6C3F1, males, in feed, site: liver, lesion: hepatocellular carcinoma, dosed 103 weeks, study length 104 weeks) of 389 mg/kg/day. The TD50 (mouse, strain B6C3F1, males, in feed, site: thyroid gland, lesion: follicular-cell adenoma, dosed 103 weeks, study length 104 weeks) was 2230 mg/kg/day, the TD50 (rat, strain Fischer 344, females, in feed, site: liver, lesion: hepatocellular adenoma + hepatocellular carcinoma + neoplastic nodule, dosed 103 weeks, study length 104 weeks) was 3310 mg/kg/day and the TD50 (rat, strain Fischer 344, females, in feed, site: lung, lesion: alveolar/bronchiolar adenoma + alveolar/bronchiolar carcinoma, dosed 103 weeks, study length 104 weeks) was 702 mg/kg/day. It also gave a TD50 (rat, strain Fischer 344, females, in feed, site: lung, lesion: alveolar/bronchiolar carcinoma, dosed 103 weeks, study length 104 weeks) of 1190 mg/kg/day, a TD50 (rat, strain Fischer 344, females, in feed, site: uterus, lesion: endometrial stromal polyp, dosed 103 weeks, study length 104 weeks) of 429 mg/kg/day and a TD50 (rat, strain Fischer 344, males, in feed, site: liver, lesion: hepatocellular adenoma + hepatocellular carcinoma + neoplastic nodule, dosed 103 weeks, study length 104 weeks) of 938 mg/kg/day. The TD50 (rat, strain Fischer 344, males, in feed, site: liver, lesion: hepatocellular carcinoma + neoplastic nodule, dosed 103 weeks, study length 104 weeks) was 938 mg/kg/day and the TD50 (rat, strain Fischer 344, males, in feed, site: liver, lesion: neoplastic nodule, dosed 103 weeks, study length 104 weeks) was 1660 mg/kg/day.

`Cc1ccc(S(=O)(=O)NC(=O)NN2CCCCCC2)cc1` was tested, and the carcinogen call [1] was “negative (inactive)”, the carcinogen call [3] was “negative (inactive)” and the TD50 (mouse, strain B6C3F1, males, in feed, site: lung, lesion: alveolar/bronchiolar adenoma + alveolar/bronchiolar carcinoma, dosed 103 weeks, study length 104 weeks) was 24600 mg/kg/day. For the same compound, the carcinogen call [5] was “negative (inactive)” and the carcinogen call [6] was “negative (inactive)”.
